According to ChEMBL document CHEMBL5365510, “Discovery of Novel, Thienopyridine-Based Tyrosine Kinase Inhibitors Targeting Tumorigenic RON Splice Variants” (ACS Med Chem Lett, 2023):
The source made the active and inactive calls. The rule behind the calls is not given here.

How the values were obtained:
[1] = tested on: KM12C; test: Antiproliferative activity against human KM12-C cells harbouring wild-type KRAS and RON delta 160 assessed as cell growth inhibition measured after 72 hrs by MTS assay; format: functional
[2] = tested on: SW-620; test: Antiproliferative activity against human SW620 cells harbouring KRAS G12 V mutant and RON delta 155 assessed as cell growth inhibition measured after 72 hrs by MTS assay; format: functional
[3] = tested on: KM12C; test: Antiproliferative activity against human KM12-C cells harbouring wild-type KRAS and RON delta 160 assessed as cell death rate at 5 uM measured after 48 hrs by trypan blue exclusion assay relative to control; format: functional
[4] = tested on: HT-29; test: Antiproliferative activity against human HT-29 cells harbouring wild-type KRAS and RON delta 160 assessed as cell death rate at 5 uM measured after 48 hrs by trypan blue exclusion assay relative to control; format: functional
[5] = tested on: NIH3T3; test: Inhibition of RON splicing variant 155 (unknown origin) transfected in […] cells assessed as reduction in RON phosphorylation at 100 uM incubated for 2 hrs by Western blotting analysis; format: cell-based
[6] = tested on: NIH3T3; test: Inhibition of RON splicing variant 160 (unknown origin) transfected in […] cells assessed as reduction in RON phosphorylation at 100 uM incubated for 2 hrs by Western blotting analysis; format: cell-based
[7] = tested on: NIH3T3; test: Inhibition of RON splicing variant 165 (unknown origin) transfected in […] cells assessed as reduction in RON phosphorylation at 100 uM incubated for 2 hrs by Western blotting analysis; format: cell-based
[8] = tested on: LS-411N; test: Antiproliferative activity against human LS-411N cells harbouring wild-type KRAS and RON delta 155 assessed as cell growth inhibition measured after 72 hrs by MTS assay; format: functional
[9] = Antiproliferative activity against human SNU-1047 cells harbouring wild-type KRAS and RON delta 155 assessed as cell growth inhibition measured after 72 hrs by MTS assay; format: functional
[10] = tested on: SW1417; test: Antiproliferative activity against human SW1417 cells harbouring wild-type KRAS and RON delta 155 assessed as cell growth inhibition measured after 72 hrs by MTS assay; format: functional
[11] = tested on: PANC-1; test: Antiproliferative activity against human PANC-1 cells harbouring KRAS G12D mutant and RON delta 155 assessed as cell growth inhibition measured after 72 hrs by MTS assay; format: functional
[12] = tested on: CAPAN-1; test: Antiproliferative activity against human CAPAN-1 cells harbouring KRAS G12V mutant and RON delta 155 assessed as cell growth inhibition measured after 72 hrs by MTS assay; format: functional
[13] = tested on: PANC-03-27; test: Antiproliferative activity against human Panc 03.27 cells harbouring KRAS G12V mutant and RON delta 155 assessed as cell growth inhibition measured after 72 hrs by MTS assay; format: functional
[14] = tested on: SW480; test: Antiproliferative activity against human SW480 cells harbouring KRAS G12V mutant and RON delta 155 assessed as cell growth inhibition measured after 72 hrs by MTS assay; format: functional
[15] = Antiproliferative activity against human SW480E cells harbouring KRAS G12V mutant and RON delta 160 assessed as cell growth inhibition measured after 72 hrs by MTS assay; format: functional
[16] = tested on: HCT-15; test: Antiproliferative activity against human HCT-15 cells harbouring KRAS G13D mutant and RON delta 160 assessed as cell growth inhibition measured after 72 hrs by MTS assay; format: functional
[17] = tested on: MIA PaCa-2; test: Antiproliferative activity against human MIA PaCa-2 cells harbouring KRAS G12C mutant and RON delta 160 assessed as cell growth inhibition measured after 72 hrs by MTS assay; format: functional
[18] = tested on: ASPC1; test: Antiproliferative activity against human ASPC1 cells harbouring KRAS G12D mutant and RON delta 165 assessed as cell growth inhibition measured after 72 hrs by MTS assay; format: functional
[19] = Tmax in Sprague-Dawley rat at 5 mg/kg, po measured after 24 hrs by LC/MS/MS analysis; format: ADME, organism-based; details: in vivo
[20] = Cmax in Sprague-Dawley rat at 5 mg/kg, po measured after 24 hrs by LC/MS/MS analysis; format: ADME, organism-based; parameters: dose 5 mg/kg, time 24 hrs, route po; details: in vivo
[21] = AUC(0 to infinity) in Sprague-Dawley rat at 1 mg/kg, iv measured after 24 hrs by LC/MS/MS analysis; format: ADME, organism-based; parameters: time 24 hrs, dose 1 mg/kg, route iv; details: in vivo, 24 h
[22] = AUC(0 to infinity) in Sprague-Dawley rat at 5 mg/kg, po measured after 24 hrs by LC/MS/MS analysis; format: ADME, organism-based; parameters: dose 5 mg/kg, time 24 hrs, route po; details: in vivo, 24 h
[23] = Clearance in Sprague-Dawley rat at 1 mg/kg, iv measured after 24 hrs by LC/MS/MS analysis; format: ADME, organism-based; details: in vivo, iv, 1 mg/kg, 24 h
[24] = Volume of distribution at steady state in Sprague-Dawley rat at 1 mg/kg, iv measured after 24 hrs by LC/MS/MS analysis; format: ADME, organism-based; details: in vivo, read-out: Vdss
[25] = Half life in Sprague-Dawley rat at 1 mg/kg, iv measured after 24 hrs by LC/MS/MS analysis; format: ADME, organism-based; details: in vivo
[26] = Half life in Sprague-Dawley rat at 5 mg/kg, po measured after 24 hrs by LC/MS/MS analysis; format: ADME, organism-based; details: in vivo
[27] = Oral bioavailability in Sprague-Dawley rat at 5 mg/kg measured after 24 hrs by LC/MS/MS analysis; format: ADME, organism-based; details: in vivo, po, 5 mg/kg, 24 h
[28] = Metabolic stability in human liver microsomes assessed as parent compound remaining after 30 mins in presence of NADPH by LC/MS/MS analysis; format: ADME, Microsome; details: read-out: Stability
[29] = tested on: KM12C; test: Antitumor activity against human KM12-C cells harbouring RON delta 160 xenografted in BALB/c mouse assessed as tumor growth inhibition at 1 mg/kg, po qd measured after 14 days; format: functional; details: 336 h, time 14 day, read-out: TGI
[30] = tested on: KM12C; test: Antitumor activity against human KM12-C cells harbouring RON delta 160 xenografted in BALB/c mouse assessed as tumor growth inhibition at 3 mg/kg, po qd measured after 14 days; format: functional; details: 336 h, time 14 day, read-out: TGI
[31] = tested on: KM12C; test: Antitumor activity against human KM12-C cells harbouring RON delta 160 xenografted in BALB/c mouse assessed as tumor growth inhibition at 10 mg/kg, po qd measured after 14 days; format: functional; details: 336 h, time 14 day, read-out: TGI
[32] = tested on: KM12C; test: Antitumor activity against human KM12-C cells harbouring RON delta 160 xenografted in BALB/c mouse assessed as tumor growth inhibition at 30 mg/kg, po qd measured after 14 days; format: functional; details: 336 h, time 14 day, read-out: TGI
[33] = tested on: SW-620; test: Antitumor activity against human SW620 cells harbouring RON delta 155 xenografted in BALB/c mouse assessed as tumor growth inhibition at 30 mg/kg, po qd measured after 28 days; format: functional; details: SW-620, 672 h, time 28 day, read-out: TGI
[34] = tested on: T84; test: Antitumor activity against human T84 cells harbouring RON delta 165 xenografted in BALB/c mouse assessed as tumor growth inhibition at 30 mg/kg, po qd measured after 34 days; format: functional; details: T84, 816 h, time 34 day, read-out: TGI
[35] = Antitumor activity against patient derived Colorectal cancer cell harbouring wild-type KRAS and RON delta 160 xenografted in BALB/c mouse assessed as tumor growth inhibition at 10 mg/kg, po qd measured after 28 days; format: functional; details: Homo sapiens, 672 h, time 28 day, read-out: TGI
[36] = tested on: HT-29; test: Antiproliferative activity against human HT-29 cells harbouring wild-type KRAS and RON delta 160 assessed as cell growth inhibition measured after 72 hrs by MTS assay; format: functional

Row | Compound | GI50 [1] [µM] | GI50 [2] [µM] | GI50 [8] [µM] | GI50 [9] [µM] | GI50 [10] [µM] | GI50 [11] [µM] | GI50 [12] [µM] | GI50 [13] [µM] | GI50 [14] [µM] | GI50 [15] [µM] | GI50 [16] [µM] | GI50 [17] [µM] | GI50 [18] [µM] | inhibition in vivo at 30 mg/kg [33] [%] | inhibition in vivo at 30 mg/kg [34] [%] | inhibition in vivo at 10 mg/kg [35] [%] | further results
1 | CCOc1ccn(-c2ccc(F)cc2)c(=O)c1C(=O)Nc1ccc(Oc2ccnc3cc(-c4ccc(CN5CCOCC5)cn4)sc23)c(F)c1 | 0.007 | 0.32 | 1.01 | 0.55 | 0.32 | 2.4 | 0.55 | 7.34 | 0.34 | 0.45 | 0.29 | 0.63 | 0.46 | 79.8 | 88.3 | 74.9 | Activity [3]: 41.9%; Activity [4]: 51.3%; inhibition [5]: Active; inhibition [6]: Active; inhibition [7]: Active; Tmax [19]: 1 h; Cmax [20]: 2.02 µg/mL; AUC [21]: 7.24 µg·h/mL; AUC [22]: 12.6 µg·h/mL; CL [23]: 0.69 L/h/kg; Vd [24]: 2.25 L/kg; half-life [25]: 3.28 h; half-life [26]: 3.1 h; F [27]: 87.01%; remaining at 0.5 h [28]: 69%; inhibition in vivo at 1 mg/kg [29]: 29.4%; inhibition in vivo at 3 mg/kg [30]: 35%; inhibition in vivo at 10 mg/kg [31]: 73%; inhibition in vivo at 30 mg/kg [32]: 85.2%
2 | CCOc1ccn(-c2ccc(F)cc2)c(=O)c1C(=O)Nc1ccc(Oc2ccnc(N)c2Cl)c(F)c1 [BMS-777607] | 0.133 | 0.86 | > 10 | > 10 | > 10 | > 10 | 9.02 | > 10 | > 10 | > 10 | 5 | > 10 | > 10 | 41.6 | 46.9 | 1.5 | GI50 [36]: > 10 µM
